The record followed here is patent US11548899B2, “Fused 1,4-oxazepines and related analogs as BET bromodomain inhibitors” (THE REGENTS OF THE UNIVERSITY OF MICHIGAN, priority 2016, dated 2023).

The IC50 is the concentration that inhibits the measured activity by half.

Several values for one entry are separate records, joined by “and”; a condition that tells them apart may be missing. Equal values may be shown once. Read-outs that look alike come from different tables or passages of the source.

In one test the test system is MOLM-13. Briefly: Cell growth inhibition, 4-day proliferation assay, MOLM-13. In kind it is cell-based. As to conditions: read-out: Cell Viability (IC50, μM) MOLM-13. On the procedure: (§1) The effect of representative Compounds of the Disclosure on cell viability was determined in a 4-day proliferation assay. Cells were maintained in the appropriate culture medium with 10% FBS at 37° C. and an atmosphere of 5% CO2. All the cell lines were used within three months of thawing fresh vials.
(§2) Cells were seeded in 96-well flat bottom (Corning COSTAR, Corning, N.Y., cat #3595) or white opaque cell culture plates (BD Falcon, cat #353296) at a density of 3,000-10,000 cells/well in 75 μl of culture medium. Compounds were serially diluted in the appropriate medium, and 75 μl of the diluted compounds were added to the appropriate wells of the cell plate. After the addition of compounds, the cells were incubated at 37° C. in an atmosphere of 5% CO2 for 4 days. Cell viability was determined using the CellTiter-Glo® Luminescent Cell Viability Assay Kit (Promega, Madison, Wis.) for leukemia cells and WST (2-(2-methoxy-4-nitrophenyl)-3-(4-nitrophenyl)-5-(2,4-disulfophenyl)-2H-tetrazolium, monosodium salt) Cell Counting-8 Kit (Dojindo Molecular Technologies, Inc., Rockville, Md.) for adhenrent cells according to the manufacturers' instructions. […]
(§3) For CellTiter-Glo assay (suspension cells), 100 μl of CellTiter-Glo® Reagent was added to each well, and then the plates were incubated at room temperature for 10-20 minutes. The luminescent signal was measured using a Tecan Infinite M1000 multimode microplate reader (Tecan, Morrisville, N.C.). The readings were normalized to the DMSO-treated cells and the IC50 was calculated by nonlinear regression (four parameters sigmoid fitted with variable slope, least squares fit, and no constraint) analysis using the GraphPad Prism 5 software. See US 2014/0256706.

Another test deals with RS4-11. In words: Cell growth inhibition, 4-day proliferation assay, RS4-11. It is filed as cell-based. Particulars: read-out: Cell Viability (IC50, μM) RS4-11. On the procedure:
as §1, §2, §3

A further test deals with T1, recombinant BRD4 BD2 (Homo sapiens, UniProt O60885).
T1 construct: recombinant BRD4 BD1 and BRD4 BD2 proteins
In words: Competitive fluorescence-polarization (FP) binding assay, BRD4 BD2. As to conditions: protein 6 nM, probe 1.5 nM.

Another test deals with T2, recombinant BRD4 BD1 (Homo sapiens, UniProt O60885).
T2 construct: recombinant BRD4 BD1 and BRD4 BD2 proteins
In words: Competitive fluorescence-polarization (FP) binding assay, BRD4 BD1.

The mark [1] stands for this setting: FP competitive binding, protein 10 nM, probe 1.5 nM, read-out: IC50 (nM) BRD4 BD1.
Setting [2] is: Homo sapiens, MOLM-13, 96 h, 4 days incubation, MOLM-13 cells.
The mark [3] stands for this setting: Homo sapiens, RS4-11, 96 h, 4 days incubation, RS4-11 cells.
The mark [4] stands for this setting: 4 days incubation, MOLM-13 cells.
The mark [5] stands for this setting: 4 days incubation, RS4-11 cells.

Experimental for recombinant BRD4 BD1: Fluorescence Polarization (FP) competitive binding studies were carried out using a FAM labeled fluorescent probe, see Cpd. […] Equilibrium dissociation constants (Kd) values of the fluorescent probe to BRD4 BD1 and BD2 proteins were determined from protein saturation experiments by monitoring the total fluorescence polarization of mixtures composed with the fluorescent probe at a fixed concentration and proteins with increasing concentrations up to full saturation. […] Plates were incubated at room temperature for 30 minutes with gentle shaking to assure equilibrium.
The IC50 and Ki values of compounds were determined in a competitive binding experiment. […] Mixtures of 10 μl of the tested compounds in assay buffer with 40% Ethylene Glycol and 190 μl of preincubated protein/probe complex solution in the assay buffer (100 mM potassium phosphate, pH 6.5, 0.01% Triton X-100) were added into assay plates which were incubated at room temperature for 30 minutes with gentle shaking. Final concentrations of proteins were 10 and 6 nM in assays for BRD4 BD1 and BD2, respectively. […] FP values were measured as described above. IC50 values were determined by nonlinear regression fitting of the competition curves.
Experimental for recombinant BRD4 BD2: Fluorescence Polarization (FP) competitive binding studies were carried out using a FAM labeled fluorescent probe, see Cpd. […] Equilibrium dissociation constants (Kd) values of the fluorescent probe to BRD4 BD1 and BD2 proteins were determined from protein saturation experiments by monitoring the total fluorescence polarization of mixtures composed with the fluorescent probe at a fixed concentration and proteins with increasing concentrations up to full saturation. Serial dilutions of testing proteins were mixed with the fluorescent probe to a final volume of 200 μl in the assay buffer (100 mM phosphate buffer, pH=6.5, 0.01% Triton X-100 (Sigma, 282103) being added right before assays). Final fluorescent probe concentration was 1.5 nM for both proteins. Plates were incubated at room temperature for 30 minutes with gentle shaking to assure equilibrium. FP values in millipolarization units (mP) were measured using the Infinite M-1000 plate reader (Tecan U.S., Research Triangle Park, N.C.) in Microfluor 1 96-well, black, round-bottom plates (Thermo Scientific, Waltham, Mass.) at an excitation wavelength of 485 nm and an emission wavelength of 530 nm.
The IC50 and Ki values of compounds were determined in a competitive binding experiment. […] Mixtures of 10 μl of the tested compounds in assay buffer with 40% Ethylene Glycol and 190 μl of preincubated protein/probe complex solution in the assay buffer (100 mM potassium phosphate, pH 6.5, 0.01% Triton X-100) were added into assay plates which were incubated at room temperature for 30 minutes with gentle shaking. Final concentrations of proteins were 10 and 6 nM in assays for BRD4 BD1 and BD2, respectively. Final probe concentration is 1.5 nM in both assays. […] FP values were measured as described above. IC50 values were determined by nonlinear regression fitting of the competition curves.

With `Cc1sc2c(c1Nc1ccccc1)COCc1nnc(C)n1-2` [Cpd. No. 6, 2,9-dimethyl-N-phenyl-4H,6H-thieno[2,3-e][1,2,4]triazolo[3,4-c][1,4]oxazepin-3-amine], the IC50 in the test with MOLM-13 (Homo sapiens, MOLM-13, 96 h) is greater than 5 µM; with RS4-11 (Homo sapiens, RS4-11, 96 h), 4.5 µM; at recombinant BRD4 BD2, 346 nM and 457 nM; at recombinant BRD4 BD1 (setting [1]) it was 317 nM and 629 nM.
Turning to `Cc1sc2c(c1Nc1cc(C3CC3)nn1C)COCc1nnc(C)n1-2` [Cpd. No. 7, N-(3-cyclopropyl-1-methyl-H-pyrazol-5-yl)-2,9-dimethyl-4H,6H-thieno[2,3-e][1,2,4]triazolo[3,4-c][1,4]oxazepin-3-amine], the IC50 was 2.8 µM with MOLM-13 (setting [2]); 4.2 µM in the test on RS4-11 (setting [3]); 1160 nM and 1260 nM at recombinant BRD4 BD2; 171 nM and 311 nM on recombinant BRD4 BD1 (setting [1]).
In the case of `Cc1sc2c(c1Cc1ccccc1)CN(C(=O)OCc1ccccc1)[C@@H](C)c1nnc(C)n1-2` [Cpd. No. 12, benzyl (S)-3-benzyl-2,6,9-trimethyl-4H-thieno[3,2-f][1,2,4]triazolo[4,3-a][1,4]diazepine-5(6H)-carboxylate], the IC50 with MOLM-13 (setting [2]) was 4 µM; with RS4-11 (setting [3]) it was 4.7 µM; at recombinant BRD4 BD2, 328 nM and 379 nM; on recombinant BRD4 BD1 (setting [1]), 371 nM.
For the compound `Cc1sc2c(c1Cc1ccccc1)CN(C(=O)OCc1ccccc1)Cc1nnc(C)n1-2` [Cpd. No. 14, benzyl 3-benzyl-2,9-dimethyl-4H-thieno[3,2-f][1,2,4]triazolo[4,3-a][1,4]diazepine-5(6H)-carboxylate], the IC50 in the test with MOLM-13 (setting [2]) was 1.9 µM; in the test on RS4-11 (setting [3]), 2.4 µM; at recombinant BRD4 BD2, 118 nM and 145 nM; at recombinant BRD4 BD1 (setting [1]) it was 85 nM and 112 nM.
Regarding `Cc1sc2c(c1Cc1ccccc1)CNCc1nnc(C)n1-2` [Cpd. No. 15, 3-benzyl-2,9-dimethyl-5,6-dihydro-4H-thieno[3,2-f][1,2,4]triazolo[4,3-a][1,4]diazepine], the IC50 in the test on MOLM-13 (setting [2]) was 2 µM; in the test with RS4-11 (setting [3]), 2.7 µM; at recombinant BRD4 BD2, 102 nM and 111 nM; at recombinant BRD4 BD1 (setting [1]), 531 nM and 751 nM.
Take `Cc1nnc2n1-c1sc(C#Cc3cnn(C)c3)c(Cc3ccccc3)c1CO[C@H]2C` [Cpd. No. 85, (S)-3-benzyl-6,9-dimethyl-2-((1-methyl-1H-pyrazol-4-yl)ethynyl)-4,6-dihydrothieno[2,3-e][1,2,4]triazolo[3,4-c][1,4]oxazepine]: the IC50 in the test on MOLM-13 (setting [4]) was 0.1 µM; in the test with MOLM-13 (setting [2]) it was 0.16 µM; in the test on RS4-11 (setting [5]), 0.12 µM; with RS4-11 (setting [3]), 0.14 µM; on recombinant BRD4 BD2, 48.3 nM and 60.3 nM; at recombinant BRD4 BD1 (setting [1]) it was 7.3 nM and 8.1 nM.
`Cc1nnc2n1-c1sc(C#Cc3ccc(N)nc3)c(Cc3ccccc3)c1COC2` [Cpd. No. 89, 5-((3-benzyl-9-methyl-4,6-dihydrothieno[2,3-e][1,2,4]triazolo[3,4-c][1,4]oxazepin-2-yl)ethynyl)pyridin-2-amine]: the IC50 is 0.28 µM in the test on MOLM-13 (setting [2]), 0.62 µM with RS4-11 (setting [3]), 315 nM at recombinant BRD4 BD2 and 8.7 nM at recombinant BRD4 BD1 (setting [1]).
Turning to `Cc1nnc2n1-c1sc(-c3cn[nH]c3)c(Cc3ccccc3)c1COC2` [Cpd. No. 91, 3-benzyl-9-methyl-2-(1H-pyrazol-4-yl)-4H,6H-thieno[2,3-e][1,2,4]triazolo[3,4-c][1,4]oxazepine], the concentration for half-maximal inhibition (IC50) in the test on MOLM-13 (setting [2]) was found to be 1.2 µM; in the test on RS4-11 (setting [3]), 1.2 µM; at recombinant BRD4 BD1 (setting [1]) it was 153 nM.
As to `Cc1nnc2n1-c1sc(-c3cnn(C)c3)c(Cc3ccccc3)c1COC2` [Cpd. No. 92, 3-benzyl-9-methyl-2-(1-methyl-H-pyrazol-4-yl)-4H,6H-thieno[2,3-e][1,2,4]triazolo[3,4-c][1,4]oxazepine], the IC50 in the test with MOLM-13 (setting [2]) worked out at 1.6 µM; with RS4-11 (setting [3]), 1.6 µM; at recombinant BRD4 BD1 (setting [1]) it was 211 nM.
Regarding `Cc1nnc2n1-c1sc(C#CCCO)c(Cc3ccccc3)c1COC2` [Cpd. No. 96, 4-(3-benzyl-9-methyl-4H,6H-thieno[2,3-e][1,2,4]triazolo[3,4-c][1,4]oxazepin-2-yl)but-3-yn-1-ol], the IC50 in the test on MOLM-13 (setting [4]) came to 0.25 µM; in the test with MOLM-13 (setting [2]) it was 0.3 µM; with RS4-11 (setting [5]), 0.34 µM; in the test with RS4-11 (setting [3]) it was 0.4 µM.
Take `Cc1nnc2n1-c1sc(CCCCO)c(Cc3ccccc3)c1COC2` [Cpd. No. 99, 4-(3-benzyl-9-methyl-4H,6H-thieno[2,3-e][1,2,4]triazolo[3,4-c][1,4]oxazepin-2-yl)butan-1-ol]: the IC50 came to 2.9 µM with MOLM-13 (setting [2]), 2.2 µM in the test with RS4-11 (setting [3]) and 367 nM on recombinant BRD4 BD1 (IC50 (nM) BRD4 BD1).
Regarding `Cc1sc2c(c1Cc1cccc(F)c1)COCc1nnc(C)n1-2` [Cpd. No. 100, 3-(3-fluorobenzyl)-2,9-dimethyl-4H,6H-thieno[2,3-e][1,2,4]triazolo[3,4-c][1,4]oxazepine], the IC50 amounted to 2.4 µM with MOLM-13 (setting [2]), 2.3 µM with RS4-11 (setting [3]) and 208 nM on recombinant BRD4 BD1 (setting [1]).
Take `Cc1sc2c(c1Cc1cccc(C#N)c1)COCc1nnc(C)n1-2` [Cpd. No. 101, 3-(3-cyanobenzyl)-2,9-dimethyl-4H,6H-thieno[2,3-e][1,2,4]triazolo[3,4-c][1,4]oxazepine]: the IC50 was greater than 5 µM with MOLM-13 (setting [2]), 3.6 µM in the test on RS4-11 (setting [3]) and 832 nM on recombinant BRD4 BD1 (setting [1]).
For `Cc1sc2c(c1Cc1ccccc1F)COCc1nnc(C)n1-2` [Cpd. No. 102, 3-(2-fluorobenzyl)-2,9-dimethyl-4H,6H-thieno[2,3-e][1,2,4]triazolo[3,4-c][1,4]oxazepine], the IC50 was determined as 3.9 µM with MOLM-13 (setting [2]), 2.6 µM with RS4-11 (setting [3]) and 222 nM on recombinant BRD4 BD1 (setting [1]).
For `Cc1sc2c(c1Cc1ccc(F)cc1)COCc1nnc(C)n1-2` [Cpd. No. 103, 3-(4-fluorobenzyl)-2,9-dimethyl-4H,6H-thieno[2,3-e][1,2,4]triazolo[3,4-c][1,4]oxazepine], the IC50 was 0.67 µM in the test with MOLM-13 (setting [4]); 1.1 µM in the test with MOLM-13 (setting [2]); 0.95 µM in the test on RS4-11 (setting [5]); 1 µM in the test with RS4-11 (setting [3]); 213 nM on recombinant BRD4 BD2; 115 nM and 70.4 nM on recombinant BRD4 BD1 (setting [1]).
With `Cc1sc2c(c1Cn1ccc3ccccc31)COCc1nnc(C)n1-2` [Cpd. No. 106, 3-((1H-indol-1-yl)methyl)-2,9-dimethyl-4H,6H-thieno[2,3-e][1,2,4]triazolo[3,4-c][1,4]oxazepine], the IC50 is 2.6 µM with MOLM-13 (setting [2]), 1.5 µM in the test with RS4-11 (setting [3]) and 283 nM at recombinant BRD4 BD1 (setting [1]).
`Cc1sc2c(c1Cc1ccccc1)COC(C)c1nnc(C)n1-2` (stereo not shown) [Cpd. No. 109, 3-benzyl-2,6,9-trimethyl-4H,6H-thieno[2,3-e][1,2,4]triazolo[3,4-c][1,4]oxazepine]: the IC50 in the test with MOLM-13 (setting [4]) was 0.81 µM; with MOLM-13 (setting [2]), 1.1 µM; in the test on RS4-11 (setting [3]) it was 1 µM; on recombinant BRD4 BD2, 125 nM and 120 nM; on recombinant BRD4 BD1 (setting [1]), 99.6 nM and 93.8 nM.
With `Cc1nnc2n1-c1sc(C#N)c(Cc3ccccc3)c1COC2` [Cpd. No. 110, 3-benzyl-9-methyl-4H,6H-thieno[2,3-e][1,2,4]triazolo[3,4-c][1,4]oxazepine-2-carbonitrile], the IC50 in the test with MOLM-13 (setting [2]) was determined as 3.8 µM; in the test on RS4-11 (setting [3]), 3.5 µM; at recombinant BRD4 BD2, 2320 nM; at recombinant BRD4 BD1 (setting [1]), 634 nM.
